Experimental data from patent US4965280A, “Antifungal carbinols” (E. I. Du Pont de Nemours and Company, priority 1989, dated 1990).

Columns and labels:
WILLMS SOYBEANS = experiment: Test D; type: in vivo, Glycine max
VELVETLEAF = experiment: Test D; type: in vivo, Abutilon theophrasti
Experimental: (§1) The Corn and Sorghum Herbicide Test included the following species in both the preemergence and postemergence evaluations:
(§2) Postemergence plantings were grown in Sassafras sandy loam soil. Corn and soybeans were grown in separate 25 cm diameter containers. Sorghum and the seven grass weed species were grown in two 18 cm diameter containers, 4 species per container. The seven broadleaf weed species were also grown in two 18 cm diameter containers, 4 species in one container, 3 species in the second container. One additional planting of corn in an 18 cm diameter container was made. The soil surface of this additional container of corn was covered with the absorbent, perlite, before spray treatment so that test chemicals would enter the plant only via the foliage. The plants were grown 10-21 days, dependent upon the species and then sprayed postemergence with the test chemicals dissolved in a nonpytotoxic solvent.
Preemergence plantings were grown in fertilized Tama silt loam soil. These plantings are identical to those described in the postemergence section, with the exception of the corn planting having perlite covering the soil surface. These plantings were made the day of or the day before spraying the test chemicals dissolved in a nonphytotoxic solvent.
(§3) Treated plants and controls were maintained in the greenhouse for 2 to 4 weeks. Visual planting response ratings were made on a percentage scale of 0 to 100 in comparison with a control where 0=no injury, and 100=death.

GIANT FOXTAIL = experiment: Test D; type: in vivo, Setaria faberii
PERLITE CORN = experiment: Test D, soil covered with perlite; type: in vivo, Zea mays
Experimental: as §1, §2, §3

G522 SORGHUM = experiment: Test D; type: in vivo, Sorghum bicolor
GREEN FOXTAIL = experiment: Test D; type: in vivo, Setaria viridis
JOHNSONGRASS = experiment: Test D; type: in vivo, Sorghum halepense

Compound	plant response (WILLMS SOYBEANS; POSTEMERGENCE 0250 GM/HA) [%]	plant response (WILLMS SOYBEANS; POSTEMERGENCE 0500 GM/HA) [%]	plant response (WILLMS SOYBEANS; PREEMERGENCE 0250 GM/HA) [%]	plant response (WILLMS SOYBEANS; PREEMERGENCE 0500 GM/HA) [%]	plant response (VELVETLEAF; POSTEMERGENCE 0250 GM/HA) [%]	plant response (VELVETLEAF; POSTEMERGENCE 0500 GM/HA) [%]	plant response (VELVETLEAF; PREEMERGENCE 0250 GM/HA) [%]	plant response (VELVETLEAF; PREEMERGENCE 0500 GM/HA) [%]	plant response (GIANT FOXTAIL; POSTEMERGENCE 0250 GM/HA) [%]	plant response (GIANT FOXTAIL; POSTEMERGENCE 0500 GM/HA) [%]	plant response (GIANT FOXTAIL; PREEMERGENCE 0250 GM/HA) [%]	plant response (GIANT FOXTAIL; PREEMERGENCE 0500 GM/HA) [%]	plant response (PERLITE CORN; POSTEMERGENCE 0250 GM/HA) [%]	plant response (PERLITE CORN; POSTEMERGENCE 0500 GM/HA) [%]	plant response (G522 SORGHUM; POSTEMERGENCE 0250 GM/HA) [%]	plant response (G522 SORGHUM; POSTEMERGENCE 0500 GM/HA) [%]	plant response (G522 SORGHUM; PREEMERGENCE 0250 GM/HA) [%]	plant response (G522 SORGHUM; PREEMERGENCE 0500 GM/HA) [%]	plant response (GREEN FOXTAIL; POSTEMERGENCE 0250 GM/HA) [%]	plant response (GREEN FOXTAIL; POSTEMERGENCE 0500 GM/HA) [%]	other results
C=C(c1ccccc1)C(O)(Cn1cncn1)c1ccc(Cl)cc1Cl (stereo not shown) [Example 50, 2-(2,4-Dichlorophenyl)-3-phenyl-1-(1H-1,2,4-triazol-1-yl)-3-buten-2-ol]	35	65	0	20	0	25	40	65	0	0	75	85	0	0	0	0	0	0	0	0	plant response (WILLMS SOYBEANS; PREEMERGENCE 0064 GM/HA): 0%; plant response (WILLMS SOYBEANS; PREEMERGENCE 0125 GM/HA): 0%; plant response (VELVETLEAF; PREEMERGENCE 0064 GM/HA): 0%; plant response (VELVETLEAF; PREEMERGENCE 0125 GM/HA): 25%; plant response (GIANT FOXTAIL; PREEMERGENCE 0064 GM/HA): 20%; plant response (GIANT FOXTAIL; PREEMERGENCE 0125 GM/HA): 65%; plant response (G522 SORGHUM; PREEMERGENCE 0064 GM/HA): 0%; plant response (G522 SORGHUM; PREEMERGENCE 0125 GM/HA): 0%; plant response (GREEN FOXTAIL; PREEMERGENCE 0064 GM/HA): 0%; plant response (GREEN FOXTAIL; PREEMERGENCE 0125 GM/HA): 30%; plant response (GREEN FOXTAIL; PREEMERGENCE 0250 GM/HA): 50%; plant response (GREEN FOXTAIL; PREEMERGENCE 0500 GM/HA): 85%; plant response (JOHNSONGRASS; POSTEMERGENCE 0250 GM/HA): 20%; plant response (JOHNSONGRASS; POSTEMERGENCE 0500 GM/HA): 40%; plant response (JOHNSONGRASS; PREEMERGENCE 0064 GM/HA): 35%; plant response (JOHNSONGRASS; PREEMERGENCE 0125 GM/HA): 70%; plant response (JOHNSONGRASS; PREEMERGENCE 0250 GM/HA): 90%; plant response (JOHNSONGRASS; PREEMERGENCE 0500 GM/HA): 95%
C=C(c1ccccc1Cl)C(O)(Cn1cncn1)c1ccc(Cl)cc1Cl (stereo not shown) [Example 33, 2-(2,4-Dichlorophenyl)-3-(2-chlorophenyl)-1-(1H-1,2,4-triazol-1-yl)-3-buten-2-ol]	0	0	0	0	0	0	0	0	0	0	0	0	0	0	0	0	0	0	0	0	plant response (WILLMS SOYBEANS; POSTEMERGENCE 1000 GM/HA): 0%; plant response (WILLMS SOYBEANS; PREEMERGENCE 1000 GM/HA): 0%; plant response (VELVETLEAF; POSTEMERGENCE 1000 GM/HA): 0%; plant response (VELVETLEAF; PREEMERGENCE 1000 GM/HA): 0%; plant response (GIANT FOXTAIL; POSTEMERGENCE 1000 GM/HA): 0%; plant response (GIANT FOXTAIL; PREEMERGENCE 1000 GM/HA): 0%; plant response (PERLITE CORN; POSTEMERGENCE 1000 GM/HA): 0%; plant response (G522 SORGHUM; POSTEMERGENCE 1000 GM/HA): 0%; plant response (G522 SORGHUM; PREEMERGENCE 1000 GM/HA): 0%; plant response (GREEN FOXTAIL; POSTEMERGENCE 1000 GM/HA): 0%; plant response (GREEN FOXTAIL; PREEMERGENCE 0250 GM/HA): 0%; plant response (GREEN FOXTAIL; PREEMERGENCE 0500 GM/HA): 0%; plant response (GREEN FOXTAIL; PREEMERGENCE 1000 GM/HA): 0%; plant response (JOHNSONGRASS; POSTEMERGENCE 0250 GM/HA): 0%; plant response (JOHNSONGRASS; POSTEMERGENCE 0500 GM/HA): 0%; plant response (JOHNSONGRASS; POSTEMERGENCE 1000 GM/HA): 0%; plant response (JOHNSONGRASS; PREEMERGENCE 0250 GM/HA): 0%; plant response (JOHNSONGRASS; PREEMERGENCE 0500 GM/HA): 0%; plant response (JOHNSONGRASS; PREEMERGENCE 1000 GM/HA): 0%
C=C(c1ccccc1Cl)C(O)(Cn1cncn1)c1ccc(F)cc1F (stereo not shown) [Example 35]	10	30	0	0	60	90	100	100	0	60	80	100	0	0	0	50	0	0	0	40	plant response (WILLMS SOYBEANS; PREEMERGENCE 0064 GM/HA): 0%; plant response (WILLMS SOYBEANS; PREEMERGENCE 0125 GM/HA): 0%; plant response (VELVETLEAF; PREEMERGENCE 0064 GM/HA): 60%; plant response (VELVETLEAF; PREEMERGENCE 0125 GM/HA): 70%; plant response (GIANT FOXTAIL; PREEMERGENCE 0064 GM/HA): 0%; plant response (GIANT FOXTAIL; PREEMERGENCE 0125 GM/HA): 50%; plant response (G522 SORGHUM; PREEMERGENCE 0064 GM/HA): 0%; plant response (G522 SORGHUM; PREEMERGENCE 0125 GM/HA): 0%; plant response (GREEN FOXTAIL; PREEMERGENCE 0064 GM/HA): 30%; plant response (GREEN FOXTAIL; PREEMERGENCE 0125 GM/HA): 70%; plant response (GREEN FOXTAIL; PREEMERGENCE 0250 GM/HA): 80%; plant response (GREEN FOXTAIL; PREEMERGENCE 0500 GM/HA): 100%; plant response (JOHNSONGRASS; POSTEMERGENCE 0250 GM/HA): 0%; plant response (JOHNSONGRASS; POSTEMERGENCE 0500 GM/HA): 50%; plant response (JOHNSONGRASS; PREEMERGENCE 0064 GM/HA): 30%; plant response (JOHNSONGRASS; PREEMERGENCE 0125 GM/HA): 30%; plant response (JOHNSONGRASS; PREEMERGENCE 0250 GM/HA): 100%; plant response (JOHNSONGRASS; PREEMERGENCE 0500 GM/HA): 100%
